Values quoted from earlier work as cited in patent US8188047B2, “Therapeutic and cosmetic compositions for treatment of skin” (priority 2009, dated 2012).

Conditions: typically

**Q.** With FC1(F)C(F)(F)C(F)(F)C2(F)C(F)(F)C(F)(F)C(F)(F)C(F)(F)C2(F)C1(F)F (stereo not shown) [perfluorodecalin] as the compound, how does the “stable up to (temperature)” value read?
**A.** up to 400 °C
